Source: ChEMBL document CHEMBL1201862, “PubChem BioAssay data set” (2004)
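Method: 48-hour compound exposure of cells in 96-well plates, five concentrations, linear interpolation of endpoints. Abbreviation: GI50, concentration required for 50% inhibition of growth.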 The source made the active and inactive calls. Rule as the data show it: active = GI50 up to about 1.1 µM and inactive = higher.

Assays:
Assay in all cases: inhibition of tumour cell growth, NCI panel, 48 h
HOP-62 = system: HOP-62
SN12C = system: SN12C
SNB-19 = system: SNB-19
NCI-H460 = system: NCI-H460
HL-60 = system: HL-60
SK-MEL-2 = system: SK-MEL-2
UACC-257 = system: UACC-257
NCI-H522 = system: NCI-H522
EKVX = system: EKVX
M14 = system: M14
ACHN = system: ACHN
NCI-H226 = system: NCI-H226
HCC 2998 = system: HCC 2998
U-251 = system: U-251
COLO 205 = system: COLO 205
K562 = system: K562
SF-268 = system: SF-268
SF-539 = system: SF-539
LOX IMVI = system: LOX IMVI

Measured: GI50

CC1SC2=NC3=C(c4ccccc4C3=O)C(c3ccc(Cl)cc3)N2C1=O (stereo not drawn)
inactive: HOP-62 > 100 µM | SN12C 95.5 µM | SNB-19 > 100 µM | NCI-H460 > 100 µM | HL-60 > 100 µM | SK-MEL-2 > 100 µM | UACC-257 > 100 µM | NCI-H522 25.1 µM | EKVX > 100 µM | M14 > 100 µM | ACHN > 100 µM | NCI-H226 > 100 µM | HCC 2998 > 100 µM | U-251 > 100 µM | COLO 205 > 100 µM | K562 > 100 µM | SF-268 > 100 µM

C/C(=N/NC(=O)C[n+]1ccccc1)C(CN(CC(C)C)CC(C)C)C(=O)Nc1ccc(C)cc1C (stereo not drawn)
inactive: HOP-62 90.8 µM | SN12C 51.4 µM | SNB-19 26.7 µM | NCI-H460 > 100 µM | HL-60 59.6 µM | SK-MEL-2 > 100 µM | UACC-257 > 100 µM | NCI-H522 40.8 µM | EKVX 45.1 µM | M14 > 100 µM | ACHN 54.5 µM | SF-539 > 100 µM | HCC 2998 > 100 µM | COLO 205 > 100 µM | K562 > 100 µM | SF-268 > 100 µM

Cc1ccc2c(c1)NC(=O)C(N=[N+]=[N-])(c1ccccc1)C2=O (stereo not drawn)
inactive: HOP-62 65.9 µM | SN12C 21.1 µM | SNB-19 30.6 µM | NCI-H460 23.6 µM | HL-60 16.4 µM | SK-MEL-2 17.9 µM | UACC-257 29.5 µM | NCI-H522 20.8 µM | EKVX 30.3 µM | LOX IMVI 18.3 µM | M14 17 µM | ACHN 41.1 µM | SF-539 35.5 µM | HCC 2998 > 100 µM | U-251 25.8 µM | COLO 205 14.1 µM | K562 21 µM | SF-268 45.2 µM

C=C[C@H]1C=Cc2c(OC)cccc2[C@@H]1COP1(=S)NC(C)C(c2ccccc2)O1 (stereo partly drawn)
inactive: HOP-62 > 100 µM | SN12C > 100 µM | SNB-19 > 100 µM | NCI-H460 > 100 µM | HL-60 18.9 µM | NCI-H522 29.4 µM | EKVX > 100 µM | LOX IMVI 17.2 µM | M14 > 100 µM | SF-539 > 100 µM | NCI-H226 67.5 µM | HCC 2998 92 µM | U-251 86.3 µM | COLO 205 97.3 µM | K562 37.1 µM | SF-268 62.1 µM

[N-]=[N+]=Nc1ccc(S(=O)(=O)Oc2cc(OS(=O)(=O)c3ccc(N=[N+]=[N-])cc3)cc(OS(=O)(=O)c3ccc(N=[N+]=[N-])cc3)c2)cc1
inactive: HOP-62 > 100 µM | SN12C > 10 µM | SNB-19 > 10 µM | NCI-H460 > 100 µM | SK-MEL-2 > 100 µM | UACC-257 > 100 µM | NCI-H522 > 100 µM | EKVX > 100 µM | LOX IMVI > 100 µM | M14 > 100 µM | ACHN > 10 µM | SF-539 > 100 µM | NCI-H226 > 10 µM | HCC 2998 > 100 µM | U-251 > 100 µM | COLO 205 > 10 µM | K562 > 100 µM | SF-268 > 100 µM

O=C(Nc1ccccc1[N+](=O)[O-])c1ccccc1
inactive: HOP-62 67.5 µM | SN12C > 100 µM | SNB-19 > 100 µM | NCI-H460 > 100 µM | HL-60 > 100 µM | UACC-257 > 100 µM | NCI-H522 56.9 µM | EKVX 97.7 µM | LOX IMVI 95.9 µM | M14 > 100 µM | ACHN > 100 µM | SF-539 > 100 µM | NCI-H226 83.8 µM | HCC 2998 > 100 µM | U-251 > 100 µM | COLO 205 > 100 µM | K562 > 100 µM | SF-268 > 100 µM

CN1N=CSC12C(=O)N(c1ccccc1)C(=O)N2c1ccccc1 (stereo not drawn)
inactive: HOP-62 > 100 µM | SN12C > 100 µM | SNB-19 > 100 µM | NCI-H460 > 100 µM | HL-60 > 100 µM | SK-MEL-2 > 100 µM | UACC-257 > 100 µM | EKVX > 100 µM | LOX IMVI > 100 µM | M14 > 100 µM | ACHN > 100 µM | SF-539 > 100 µM | HCC 2998 > 100 µM | U-251 > 100 µM | COLO 205 > 100 µM | K562 > 100 µM | SF-268 > 100 µM

C[n+]1c(-c2ccc(/C=N/NC(=N)N/N=C/c3ccc(-c4cn5cc(Cl)ccc5[n+]4C)cc3)cc2)cn2cc(Cl)ccc21
inactive: HOP-62 > 100 µM | SN12C > 100 µM | SNB-19 > 100 µM | NCI-H460 > 100 µM | HL-60 > 100 µM | UACC-257 > 100 µM | NCI-H522 > 100 µM | EKVX > 100 µM | M14 > 100 µM | ACHN > 100 µM | SF-539 > 100 µM | HCC 2998 > 100 µM | U-251 > 100 µM | COLO 205 > 100 µM | K562 > 100 µM | SF-268 > 100 µM

COCCOc1cc(C)cc(/C=C(C)/C=C/C2=C(C)CCCC2(C)C)n1
inactive: HOP-62 > 100 µM | SN12C > 100 µM | SNB-19 > 100 µM | NCI-H460 88.7 µM | SK-MEL-2 49 µM | UACC-257 33.2 µM | NCI-H522 28.9 µM | EKVX 38.2 µM | LOX IMVI 54.8 µM | M14 94 µM | ACHN 84.3 µM | SF-539 > 100 µM | NCI-H226 32.1 µM | U-251 62.4 µM | COLO 205 54 µM | SF-268 > 100 µM

COc1c(C)c(O)c2c(c1C)OC(c1ccccc1)CC2=O (stereo not drawn)
inactive: HOP-62 > 100 µM | SN12C 52.5 µM | NCI-H460 36.8 µM | HL-60 28.3 µM | SK-MEL-2 22.4 µM | UACC-257 > 10 µM | NCI-H522 45.9 µM | EKVX 65.2 µM | LOX IMVI 46.3 µM | M14 67.1 µM | ACHN 51.9 µM | SF-539 84.5 µM | NCI-H226 38.9 µM | HCC 2998 56.1 µM | U-251 67.9 µM | K562 35.1 µM | SF-268 56.9 µM

COc1ccc(/C=C/C(=O)c2sc(NC(=S)NC(=O)c3ccccc3F)nc2C)cc1OC
inactive: HOP-62 > 100 µM | SN12C > 100 µM | SNB-19 > 100 µM | NCI-H460 > 100 µM | HL-60 46.2 µM | SK-MEL-2 > 100 µM | NCI-H522 21.5 µM | EKVX > 100 µM | LOX IMVI > 100 µM | ACHN > 100 µM | SF-539 > 100 µM | HCC 2998 > 100 µM | U-251 > 100 µM | COLO 205 51.5 µM | K562 > 100 µM | SF-268 > 100 µM

FC(F)(F)c1nc(-c2ccccc2)oc1Sc1nnc(Sc2oc(-c3ccccc3)nc2C(F)(F)F)s1
inactive: HOP-62 > 100 µM | SN12C 39.4 µM | SNB-19 > 63.5 µM | NCI-H460 > 100 µM | HL-60 14.2 µM | SK-MEL-2 86.7 µM | UACC-257 > 69.7 µM | NCI-H522 18.5 µM | EKVX > 47.2 µM | LOX IMVI 10.4 µM | M14 14.2 µM | ACHN > 82.2 µM | SF-539 > 69.8 µM | HCC 2998 > 78.2 µM | U-251 > 42.5 µM | COLO 205 41.1 µM | K562 24 µM | SF-268 58.9 µM

COc1ccc(N(C)CN(C)c2nc(N(C)C)nc(N(C)C)n2)cc1
inactive: HOP-62 > 100 µM | SN12C > 100 µM | SNB-19 > 100 µM | NCI-H460 > 100 µM | HL-60 > 100 µM | SK-MEL-2 > 100 µM | UACC-257 > 100 µM | NCI-H522 > 100 µM | EKVX > 100 µM | LOX IMVI > 100 µM | M14 > 100 µM | ACHN > 100 µM | SF-539 > 100 µM | U-251 > 100 µM | COLO 205 > 100 µM | K562 > 100 µM | SF-268 > 100 µM

C[C@]12CCC(=O)C=C1CC[C@@H]1C2CC[C@]2(C)Nc3c(cnn3-c3ccccc3)CC12 (stereo partly drawn)
inactive: HOP-62 > 100 µM | NCI-H460 > 100 µM | HL-60 > 100 µM | SK-MEL-2 > 100 µM | UACC-257 > 100 µM | EKVX > 100 µM | M14 > 100 µM | ACHN > 100 µM | SF-539 > 100 µM | NCI-H226 > 100 µM | HCC 2998 > 100 µM | U-251 > 100 µM | K562 > 100 µM

CCOc1ccc(NC(=O)CC2C(=O)Nc3ccccc3S2(=O)=O)cc1 (stereo not drawn)
inactive: HOP-62 41.1 µM | SN12C 53.1 µM | SNB-19 34.5 µM | NCI-H460 > 100 µM | HL-60 > 100 µM | SK-MEL-2 75.2 µM | UACC-257 > 100 µM | NCI-H522 > 100 µM | EKVX > 100 µM | LOX IMVI > 100 µM | ACHN > 100 µM | SF-539 55.1 µM | NCI-H226 34.3 µM | HCC 2998 > 100 µM | U-251 33.2 µM | COLO 205 > 100 µM | K562 > 100 µM | SF-268 42.7 µM

O=C1c2cccc3cccc(c23)C(=O)N1CCCN1CCN(CCCN2C(=O)c3cccc4cccc(c34)C2=O)CC1
inactive: HOP-62 > 100 µM | SN12C > 100 µM | SNB-19 > 100 µM | NCI-H460 > 100 µM | HL-60 > 100 µM | SK-MEL-2 > 100 µM | UACC-257 > 100 µM | EKVX > 100 µM | LOX IMVI > 100 µM | M14 > 100 µM | ACHN > 100 µM | SF-539 > 100 µM | NCI-H226 > 100 µM | HCC 2998 > 100 µM | U-251 > 100 µM | COLO 205 > 100 µM | K562 > 100 µM
